Test results: paper PMC6268546, “A PAMPA Assay as Fast Predictive Model of Passive Human Skin Permeability of New Synthesized Corticosteroid C-21 Esters” (Molecules, 2012)
Values joined by “and” are separate entries in the source; they are usually repeats but may differ in a detail not shown here. Identical values can stand only once.

Key:
[1] = PAMPA test (skin permeability model); details: for permeability coefficient log Pe / permeation parameter CA(t)/CD(0) / retention factor R (membrane retention): 70% silicone oil-30% IPM membrane, 7 h incubation, 100 μM in 5% DMSO phosphate buffer pH 7, triplicate mean; for Papp at 7 h, 100 μM: PAMPA, pH 7
Method: The study was performed in triplicate and the results are presented as mean values. After the PAMPA tests was performed, a HPLC method was used to measure the concentrations of the investigated corticosteroids: the initial concentration–CD(0) in the starting solution, the residual concentration–CD(t) in the donor compartment (7 h after incubation) and the transferred concentration–CA(t) in the acceptor compartment (7 h after incubation). The assay was performed using the previously described HPLC method with mobile phase modification for determination of standard corticosteroids. The mobile phase modification was introduced to achieve complete separation standard corticosteroids peak from DMSO peak, which was used as cosolvent. DMSO was used as cosolvent with the aim of increasing the corticosteroid C-21 esters’ solubility. DMSO is one of the earliest and most widely studied penetration enhancers for transdermal drug delivery systems.
On the basis of the initial (100 μM) and calculated residual and transferred concentrations according to peak area comparison at zero time t0, the retention factors–R and permeability coefficients–logPe of investigated corticosteroids were obtained.
Phosphate buffer (pH = 7) was prepared by dissolving NaH2PO4·H2O (1.167 g) and Na2HPO4·7H2O (3.093 g) in water (1000 mL) with the fixed total concentration of 20 mM. The 5% DMSO solution were prepared dissolving DMSO in phosphate buffer. The corticosteroid solutions were prepared dissolving the investigated corticosteroid standards as well as new synthesized corticosteroid C-21 esters in 5% DMSO solution. […] An aliquot of previously prepared mixture (3.5 mL, 7 mL silicone oil and 3 mL IPM) was transferred into a 10 mL volumetric flask, dissolved and fill up to mark with n-hexane.
Permeation experiments were carried out in hydrophobic PVDF 96-well filter plates (Millipore, Molsheim, France). […] Next, in each well of acceptor plate, 5% DMSO solution (400 μL) was transferred with an automatic pipette and covered by the donor plate, creating a PAMPA sandwich. In each well of the donor plate solutions of the tested corticosteroid in 5% DMSO solution (100 μM, 300 μL) was transferred by the use of an automatic pipette. Each substance was measured in triplicate at iso-pH conditions (the same pH value in donor and receptor compartment). The donor plate was covered to prevent evaporation and the whole system set up to interact with the vibratory mixer. After 7 h, PAMPA sandwich was removed from the mixer and vibration, and using the HPLC method the concentration of the investigated substances in the donor and receptor compartments were determined. The HPLC method used was as previously described but with some necessary modifications. A mobile phase of methanol–water (75:25 v/v) was used for analysis of corticosteroid C-21 esters, while the mobile phase methanol–water (50:50 v/v) was used for the analysis of unesterified corticosteroids to increase their retention time and prevent overlapping with the DMSO peak. Other HPLC parameters were as previously described. The concentrations of each tested corticosteroid in the appropriate time interval in the donor and acceptor compartments were calculated using the method of comparing the peak area of the initial concentration at zero time t0.
The values of permeability coefficients–logPe and retention factors–R of examined corticosteroids were calculated using equations (2) and (3). The retention factor, R can be defined as the mole fraction retained in the membrane and in the microplates (i.e., filters and plate materials): [drawing 1] (2) where CA(t)/CD(0) represents the amount of compound that reached the acceptor compartment after incubation time t (for VA = VD): […]

[2] = approximate logKp (permeability coefficient through human skin) calculated from logPe by equation (1); details: logKp = 1.34 logPe + 0.28, from PAMPA logPe
From the text: Ottaviani and coworkers predicted skin permeation of numerous compounds applying a new membrane (70% silicone oil and 30% IPM) in the PAMPA test and presented permeate classifications on the basis of available literature permeability coefficients through human skin, logKp.
The proposed equation for correlation between logKp and logPe for 31 investigated compounds was: […]

[3] = system: croton oil induced mice ear edema; details: 4 h after application, at ED50 of FA (28 μM); cited from earlier work

| SMILES | permeability coefficient log Pe [1] | permeation parameter CA(t)/CD(0) [1] | retention factor R (membrane retention) [1] | Papp at 7 h, 100 μM [1] | logKp (approximate, calculated) [2] | relative anti-inflammatory activity (reduction of mass edema) in comparison to FA (100%) [3] | permeation parameter CA(t)/CD(0) ([1]; listed as mometasone furoate) | retention factor R (membrane retention) ([1]; listed as mometasone furoate) | permeate classification (groups I-III) from R versus CA(t)/CD(0) ([1]; relationship between retention factors and permeation parameters, Figure 2) |
| --- | --- | --- | --- | --- | --- | --- | --- | --- | --- |
| CCOC(CC)C(=O)OCC(=O)C1(O)C(C)CC2C3CCC4=CC(=O)C=CC4(C)C3(F)C(O)CC21C (centres unmarked) [DEX-21-EB, dexamethasone 21-(2′-ethoxybutyrate)] | −4.58 ± 0.13 cm/s | 33.4 ± 1.2% | 11.3 ± 3.5% | – | – | – | – | – | – |
| CCOC(C)C(=O)OCC(=O)C1(O)C(C)CC2C3CCC4=CC(=O)C=CC4(C)C3(F)C(O)CC21C (centres unmarked) [DEX-21-EP, dexamethasone 21-(2′-ethoxypropionate)] | – | 31.6 ± 0.6% | <1% | – | – | – | – | – | – |
| CCC(OC)C(=O)OCC(=O)C1(O)C(C)CC2C3CCC4=CC(=O)C=CC4(C)C3(F)C(O)CC21C (centres unmarked) [DEX-21-MB, dexamethasone 21-(2′-methoxybutyrate)] | −4.58 ± 0.15 cm/s | 37.4 ± 1.5% | <1% | – | – | – | – | – | – |
| COC(C)C(=O)OCC(=O)C1(O)C(C)CC2C3CCC4=CC(=O)C=CC4(C)C3(F)C(O)CC21C (centres unmarked) [DEX-21-MP, dexamethasone 21-(2′-methoxypropionate)] | −4.88 ± 0.17 cm/s | 23.8 ± 1.5% | <1% | – | – | – | – | – | – |
| CC(Oc1ccccc1)C(=O)OCC(=O)C1(O)C(C)CC2C3CCC4=CC(=O)C=CC4(C)C3(F)C(O)CC21C (centres unmarked) [DEX-21-PhP, dexamethasone 21-(2′-phenoxypropionate)] | – | 4.1 ± 1.1% | 86.5 ± 4.2% | – | – | – | – | – | – |
| CC1(C)O[C@@H]2C[C@H]3[C@@H]4C[C@H](F)C5=CC(=O)C=C[C@]5(C)[C@@]4(F)[C@@H](O)C[C@]3(C)[C@]2(C(=O)CO)O1 [FA, fluocinolone acetonide, reference compound] | – | 6.7 ± 1.2% | <1% | 5.5 ×10⁻⁶ cm/s | −6.77 | 100% | – | – | – |
| CCOC(CC)C(=O)OCC(=O)C12OC(C)(C)OC1CC1C3CC(F)C4=CC(=O)C=CC4(C)C3(F)C(O)CC12C (centres unmarked) [FA-21-EB, fluocinolone acetonide 21-(2′-ethoxybutyrate)] | −4.82 ± 0.10 cm/s | 7.2 ± 0.9% | 72.8 ± 2.6% | – | – | 60% | – | – | – |
| CCOC(C)C(=O)OCC(=O)[C@@]12OC(C)(C)O[C@@H]1C[C@H]1[C@@H]3C[C@H](F)C4=CC(=O)C=C[C@]4(C)[C@@]3(F)[C@@H](O)C[C@@]12C (some centres unmarked) [FA-21-EP, fluocinolone acetonide 21-(2′-ethoxypropionate)] | −4.52 ± 0.19 cm/s | 22.2 ± 1.6% | 45.8 ± 4.1% | – | – | less than 10% | – | – | – |
| CCC(OC)C(=O)OCC(=O)C12OC(C)(C)OC1CC1C3CC(F)C4=CC(=O)C=CC4(C)C3(F)C(O)CC12C (centres unmarked) [FA-21-MB, fluocinolone acetonide 21-(2′-methoxybutyrate)] | −4.65 ± 0.12 cm/s | 18.0 ± 1.3% | 47.2 ± 3.4% | – | – | – | – | – | – |
| COC(C)C(=O)OCC(=O)[C@@]12OC(C)(C)O[C@@H]1C[C@H]1[C@@H]3C[C@H](F)C4=CC(=O)C=C[C@]4(C)[C@@]3(F)[C@@H](O)C[C@@]12C (some centres unmarked) [FA-21-MP, fluocinolone acetonide 21-(2′-methoxy-propionate)] | −4.64 ± 0.17 cm/s | 23.1 ± 1.4% | 34.1 ± 3.5% | – | – | 108.12% | – | – | – |
| CC(Oc1ccccc1)C(=O)OCC(=O)C12OC(C)(C)OC1CC1C3CC(F)C4=CC(=O)C=CC4(C)C3(F)C(O)CC12C (centres unmarked) [FA-21-PhP, fluocinolone acetonide 21-(2′-phenoxypropionate)] | −5.68 ± 0.15 cm/s | 1.3 ± 0.6% | 71.9 ± 2.8% | – | – | 65% | – | – | – |
| C[C@]12CCC(=O)C=C1CC[C@@H]1[C@@H]2[C@@H](O)C[C@@]2(C)[C@H]1CC[C@]2(O)C(=O)CO [H, hydrocortisone, reference compound] | – | – | 1.5 ± 0.9% | – | – | – | – | – | – |
| CC(=O)OCC(=O)[C@@]1(O)CC[C@H]2[C@@H]3CCC4=CC(=O)CC[C@]4(C)[C@H]3[C@@H](O)C[C@@]21C [H-21-Ac, hydrocortisone acetate, reference compound] | – | 10% and 10.0 ± 1.7% | < 1% | 8.51 ×10⁻⁶ cm/s | −6.51 | – | – | – | – |
| C[C@@H]1C[C@H]2[C@@H]3CCC4=CC(=O)C=C[C@]4(C)[C@@]3(Cl)[C@@H](O)C[C@]2(C)[C@@]1(OC(=O)c1ccco1)C(=O)CCl [MF, mometasone furoate, reference compound] | – | 7.7 ± 1.5% | 81.0 ± 2.9% | 79.4 ×10⁻⁶ cm/s | −5.21 | – | 7.7% | 81% | group III (having high membrane retention and low permeation (group III)) |
| CC1(C)O[C@@H]2C[C@H]3[C@@H]4CCC5=CC(=O)C=C[C@]5(C)[C@@]4(F)[C@@H](O)C[C@]3(C)[C@]2(C(=O)CO)O1 [TA, triamcinolone acetonide, reference compound] | – | 10.8 ± 1.5% | 4.7 ± 2.3% | 9.77 ×10⁻⁶ cm/s | −6.43 | – | – | – | – |
| CCOC(CC)C(=O)OCC(=O)C12OC(C)(C)OC1CC1C3CCC4=CC(=O)C=CC4(C)C3(F)C(O)CC12C (centres unmarked) [TA-21-EB, triamcinolone acetonide 21-(2′-ethoxybutyrate)] | −4.87 ± 0.21 cm/s | 7.3 ± 1.6% | 70.1 ± 3.4% | – | – | – | – | – | – |
| CCOC(C)C(=O)OCC(=O)C12OC(C)(C)OC1CC1C3CCC4=CC(=O)C=CC4(C)C3(F)C(O)CC12C (centres unmarked) [TA-21-EP, triamcinolone acetonide 21-(2′-ethoxypropionate)] | −4.66 ± 0.15 cm/s | 23.0 ± 1.8% | 32.4 ± 1.7% | – | – | – | – | – | – |
| CCC(OC)C(=O)OCC(=O)C12OC(C)(C)OC1CC1C3CCC4=CC(=O)C=CC4(C)C3(F)C(O)CC12C (centres unmarked) [TA-21-MB, triamcinolone acetonide 21-(2′-methoxybutyrate)] | −4.85 ± 0.23 cm/s | 16.9 ± 2.0% | 39.3 ± 4.1% | – | – | – | – | – | – |
| COC(C)C(=O)OCC(=O)C12OC(C)(C)OC1CC1C3CCC4=CC(=O)C=CC4(C)C3(F)C(O)CC12C (centres unmarked) [TA-21-MP, triamcinolone acetonide 21-(2′-methoxypropionate)] | −4.45 ± 0.16 cm/s | 38.1 ± 1.6% | 13.5 ± 4.1% | – | – | – | – | – | – |
| CC(Oc1ccccc1)C(=O)OCC(=O)C12OC(C)(C)OC1CC1C3CCC4=CC(=O)C=CC4(C)C3(F)C(O)CC12C (centres unmarked) [TA-21-PhP, triamcinolone acetonide 21-(2′-phenoxypropionate)] | −4.07 ± 0.14 cm/s | 27.1 ± 1.4% | 51.1 ± 3.8% | – | – | – | – | – | – |
